Laboratory results taken from ChEMBL document CHEMBL1201862, “PubChem BioAssay data set” (2004).
Where a name gives a salt, the structure may show the parent alone. Active and inactive are the calls of the source.

Legend:
[1] = target: Voltage-gated inwardly rectifying potassium channel KCNH2 (Homo sapiens, UniProt Q12809); details: Potency;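 note: confirmatory quantitative high-throughput screen measuring inhibition of hERG channel activity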
[2] = target: T1, Carboxy-terminal domain RNA polymerase II polypeptide A small phosphatase 1 (Homo sapiens, UniProt Q9GZU7); assay: CTDSP1 inhibitors, concentration-response, biochemical, absorbance readout, ultra-high-throughput screen actives (AID 540297); type: functional
T1 sequence (Q9GZU7 whole entry): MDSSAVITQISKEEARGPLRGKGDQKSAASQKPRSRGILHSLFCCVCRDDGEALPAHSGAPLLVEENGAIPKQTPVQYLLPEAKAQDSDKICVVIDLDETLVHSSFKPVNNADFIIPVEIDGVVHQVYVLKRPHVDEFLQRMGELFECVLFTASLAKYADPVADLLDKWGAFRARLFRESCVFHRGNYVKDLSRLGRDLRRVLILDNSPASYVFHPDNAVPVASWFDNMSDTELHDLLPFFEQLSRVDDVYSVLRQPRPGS

[3] = target: T2, Short transient receptor potential channel 4 (Mus musculus, UniProt Q9QUQ5); assay: block of DAMGO-driven TRPC4 calcium entry – cell-based, HEK293 TRPC4/mu-opioid, Fluo-4 calcium, dose response (AID 434942); type: functional;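 note: potency of inhibitors blocking the TRPC4 calcium response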
T2 sequence (Q9QUQ5 whole entry): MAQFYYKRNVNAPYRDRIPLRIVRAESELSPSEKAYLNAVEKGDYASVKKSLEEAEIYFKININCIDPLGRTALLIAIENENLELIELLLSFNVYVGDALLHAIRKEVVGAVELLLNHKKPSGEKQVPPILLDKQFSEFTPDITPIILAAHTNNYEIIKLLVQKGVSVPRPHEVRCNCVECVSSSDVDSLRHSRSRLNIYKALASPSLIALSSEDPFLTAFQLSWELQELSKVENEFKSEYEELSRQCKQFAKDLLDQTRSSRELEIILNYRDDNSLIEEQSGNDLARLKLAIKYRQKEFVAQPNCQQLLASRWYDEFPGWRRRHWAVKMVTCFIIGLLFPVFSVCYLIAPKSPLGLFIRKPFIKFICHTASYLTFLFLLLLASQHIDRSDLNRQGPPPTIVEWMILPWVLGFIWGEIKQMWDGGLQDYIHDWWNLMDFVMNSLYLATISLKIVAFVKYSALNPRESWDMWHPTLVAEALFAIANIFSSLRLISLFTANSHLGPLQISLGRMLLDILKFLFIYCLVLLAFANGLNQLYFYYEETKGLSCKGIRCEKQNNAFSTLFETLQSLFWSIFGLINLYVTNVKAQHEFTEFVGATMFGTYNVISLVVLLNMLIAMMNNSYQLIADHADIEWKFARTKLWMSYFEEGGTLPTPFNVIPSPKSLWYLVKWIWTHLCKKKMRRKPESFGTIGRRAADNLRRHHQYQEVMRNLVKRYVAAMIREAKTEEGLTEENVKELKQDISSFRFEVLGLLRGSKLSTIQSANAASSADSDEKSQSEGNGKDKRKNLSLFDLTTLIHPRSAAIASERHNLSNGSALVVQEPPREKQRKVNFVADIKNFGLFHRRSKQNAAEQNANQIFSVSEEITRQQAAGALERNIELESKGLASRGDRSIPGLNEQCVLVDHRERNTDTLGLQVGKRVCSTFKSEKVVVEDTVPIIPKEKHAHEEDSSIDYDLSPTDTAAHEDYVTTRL

[4] = target: T3, Coagulation factor XII (Homo sapiens, UniProt P00748); type: functional;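 note: activated factor XIIa alpha cleaving a fluorogenic AMC peptide substrate; inhibitor potency from loss of enzyme activity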
T3 sequence (P00748 whole entry): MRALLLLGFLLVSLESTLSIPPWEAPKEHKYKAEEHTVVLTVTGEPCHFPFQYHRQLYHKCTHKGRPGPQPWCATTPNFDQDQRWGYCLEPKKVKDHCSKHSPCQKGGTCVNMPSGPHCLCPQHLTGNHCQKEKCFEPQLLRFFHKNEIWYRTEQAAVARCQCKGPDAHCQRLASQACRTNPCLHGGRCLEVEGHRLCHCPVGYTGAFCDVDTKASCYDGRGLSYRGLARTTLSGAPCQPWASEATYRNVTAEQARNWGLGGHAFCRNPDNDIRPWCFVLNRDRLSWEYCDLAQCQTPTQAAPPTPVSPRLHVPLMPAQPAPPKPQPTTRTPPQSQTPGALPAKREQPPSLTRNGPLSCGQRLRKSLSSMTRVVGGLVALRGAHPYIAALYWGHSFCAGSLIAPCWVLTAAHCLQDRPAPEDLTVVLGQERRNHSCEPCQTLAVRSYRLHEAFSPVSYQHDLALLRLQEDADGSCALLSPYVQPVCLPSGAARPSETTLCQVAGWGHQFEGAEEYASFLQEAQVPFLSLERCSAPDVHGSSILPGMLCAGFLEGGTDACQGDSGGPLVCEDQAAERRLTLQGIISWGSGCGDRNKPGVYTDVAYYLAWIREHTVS

[5] = NIH-3T3 fibroblast cytotoxicity, dose response, cytotoxicity control, cell-based, fluorescence, Alamar Blue, secondary assay (AID 2327); type: functional;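 note: NIH-3T3 mouse fibroblasts cultured with fluconazole at 8 µg/mL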
[6] = tested on: Streptococcus sp. 'group A'; assay: Streptococcus pyogenes SK(-)GAS viability under kanamycin – luminescence, BacTiterGlo, confirmation, counter-screen for streptokinase expression inhibitor project, dose response (AID 1900); type: functional, organism-based
[7] = fluconazole-exposed Candida albicans growth modulators – fluorescence, retest, confirmation (AID 2467); type: functional, cell-based
[8] = target: T4, Serine/threonine-protein phosphatase (Candida dubliniensis (strain CD36 / CBS 7987 / NCPF 3949 / NRRLY-17841) (Yeast), UniProt B9W6M3); assay: blockers of CaCl2-induced CDRE-lacZ signaling – S. cerevisiae, luminescence, secondary, dose response (AID 2388); type: functional, cell-based;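 note: yeast reporter cells carrying a calcineurin-responsive lacZ construct stimulated with calcium chloride; luminescent beta-galactosidase reporter signal in whole cells rather than isolated phosphatase activity; potency for inhibition where a drop in reporter signal means calcineurin blockade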
T4 sequence (B9W6M3 whole entry): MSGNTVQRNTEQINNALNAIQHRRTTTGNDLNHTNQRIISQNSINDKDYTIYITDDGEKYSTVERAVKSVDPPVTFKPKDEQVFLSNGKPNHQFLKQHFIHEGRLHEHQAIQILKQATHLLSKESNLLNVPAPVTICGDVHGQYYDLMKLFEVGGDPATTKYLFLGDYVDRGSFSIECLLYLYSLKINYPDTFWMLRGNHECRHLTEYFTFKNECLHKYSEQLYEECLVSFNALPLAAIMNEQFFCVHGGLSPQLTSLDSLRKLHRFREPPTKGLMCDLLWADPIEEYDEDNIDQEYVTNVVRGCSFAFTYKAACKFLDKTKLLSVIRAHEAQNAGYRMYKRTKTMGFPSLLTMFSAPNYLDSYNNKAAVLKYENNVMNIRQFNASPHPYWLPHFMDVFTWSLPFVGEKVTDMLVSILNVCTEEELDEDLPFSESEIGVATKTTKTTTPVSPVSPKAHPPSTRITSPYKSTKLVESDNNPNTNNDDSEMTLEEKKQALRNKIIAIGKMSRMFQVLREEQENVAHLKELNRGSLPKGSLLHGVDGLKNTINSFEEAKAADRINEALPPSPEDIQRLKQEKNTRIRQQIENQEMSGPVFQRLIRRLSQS

[9] = tested on: Streptococcus; assay: GAS UMAA2166 growth inhibition – luminescence, BacTiterGlo, counter-screen for streptokinase expression inhibitor project, dose response (AID 1915); type: functional, organism-based;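 note: potency for reduction of bacterial viability or growth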
[10] = Luminescence Cell-Based Dose Retest to Confirm Inhibitors of Cancer Stem Cells. [Related pubchem assays (depositor defined):AID2717, AID2721]; type: functional; details: Homo sapiens
[11] = target: Heat shock protein HSP 90-alpha (Homo sapiens, UniProt P07900); type: functional, organism-based
[12] = target: T5, High affinity choline transporter 1 (Homo sapiens, UniProt Q9GZV3); assay: human choline transporter blockers, potency – cell-based, 5-point CRC, membrane potential dye, dose response (AID 504840); type: functional
T5 sequence (Q9GZV3 whole entry): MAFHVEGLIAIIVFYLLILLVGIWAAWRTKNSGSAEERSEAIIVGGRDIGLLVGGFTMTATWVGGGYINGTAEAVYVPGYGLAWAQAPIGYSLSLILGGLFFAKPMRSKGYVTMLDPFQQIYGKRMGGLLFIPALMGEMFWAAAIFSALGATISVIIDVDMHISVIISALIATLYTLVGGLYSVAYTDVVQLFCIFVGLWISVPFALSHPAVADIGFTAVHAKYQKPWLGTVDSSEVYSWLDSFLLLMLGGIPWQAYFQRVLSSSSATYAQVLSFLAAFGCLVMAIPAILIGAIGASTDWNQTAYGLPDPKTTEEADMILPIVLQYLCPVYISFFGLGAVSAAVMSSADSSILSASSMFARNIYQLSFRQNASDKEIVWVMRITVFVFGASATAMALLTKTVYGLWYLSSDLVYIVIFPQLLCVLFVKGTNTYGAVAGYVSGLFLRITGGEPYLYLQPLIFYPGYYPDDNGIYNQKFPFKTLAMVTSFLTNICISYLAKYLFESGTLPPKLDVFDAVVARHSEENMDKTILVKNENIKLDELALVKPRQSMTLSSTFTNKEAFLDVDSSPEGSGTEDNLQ

[13] = target: T6, Hexokinase (Trypanosoma brucei, UniProt Q38C41); assay: Confirmation assay for inhibitors of Trypanosoma brucei hexokinase 1-Analogue-first series. [Related pubchem assays (depositor defined):AID1430, AID1632, AID2516, AID2560, AID2579, AID2600, AID449725, AID492951]; type: functional
T6 sequence (Q38C41 whole entry): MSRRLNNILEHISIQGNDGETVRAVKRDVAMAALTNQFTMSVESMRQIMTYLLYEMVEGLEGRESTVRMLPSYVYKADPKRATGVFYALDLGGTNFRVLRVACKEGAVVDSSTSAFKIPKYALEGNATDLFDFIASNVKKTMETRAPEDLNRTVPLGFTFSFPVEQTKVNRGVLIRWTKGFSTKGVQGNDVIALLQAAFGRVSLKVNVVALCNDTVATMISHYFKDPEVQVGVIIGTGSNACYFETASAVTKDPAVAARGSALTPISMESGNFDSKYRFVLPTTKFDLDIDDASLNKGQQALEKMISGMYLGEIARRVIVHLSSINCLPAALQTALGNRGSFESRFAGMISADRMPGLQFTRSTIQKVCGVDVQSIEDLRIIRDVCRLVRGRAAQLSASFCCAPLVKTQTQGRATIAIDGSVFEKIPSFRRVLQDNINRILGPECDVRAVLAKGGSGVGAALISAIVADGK

[14] = target: T7, Activin receptor type-1 (Homo sapiens, UniProt Q04771); assay: Navigating the Kinome. Panel member name: ACVR1; type: functional
T7 sequence (Q04771 whole entry): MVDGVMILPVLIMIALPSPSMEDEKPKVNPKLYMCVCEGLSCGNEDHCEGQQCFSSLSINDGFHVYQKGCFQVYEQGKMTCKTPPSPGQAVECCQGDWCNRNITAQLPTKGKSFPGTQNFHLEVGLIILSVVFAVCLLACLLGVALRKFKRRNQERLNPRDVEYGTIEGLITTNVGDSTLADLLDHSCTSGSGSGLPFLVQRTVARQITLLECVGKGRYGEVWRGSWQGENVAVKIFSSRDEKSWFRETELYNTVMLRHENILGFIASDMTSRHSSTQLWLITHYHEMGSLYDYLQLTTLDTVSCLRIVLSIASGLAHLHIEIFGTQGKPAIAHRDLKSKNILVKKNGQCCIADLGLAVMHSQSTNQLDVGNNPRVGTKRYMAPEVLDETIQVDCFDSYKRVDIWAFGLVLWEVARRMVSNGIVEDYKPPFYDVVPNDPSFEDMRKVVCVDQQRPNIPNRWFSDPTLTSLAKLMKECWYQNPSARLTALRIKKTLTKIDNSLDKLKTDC

Chain of Voltage-gated inwardly rectifying potassium channel KCNH2 (Q12809 whole entry, the tested form may be a part): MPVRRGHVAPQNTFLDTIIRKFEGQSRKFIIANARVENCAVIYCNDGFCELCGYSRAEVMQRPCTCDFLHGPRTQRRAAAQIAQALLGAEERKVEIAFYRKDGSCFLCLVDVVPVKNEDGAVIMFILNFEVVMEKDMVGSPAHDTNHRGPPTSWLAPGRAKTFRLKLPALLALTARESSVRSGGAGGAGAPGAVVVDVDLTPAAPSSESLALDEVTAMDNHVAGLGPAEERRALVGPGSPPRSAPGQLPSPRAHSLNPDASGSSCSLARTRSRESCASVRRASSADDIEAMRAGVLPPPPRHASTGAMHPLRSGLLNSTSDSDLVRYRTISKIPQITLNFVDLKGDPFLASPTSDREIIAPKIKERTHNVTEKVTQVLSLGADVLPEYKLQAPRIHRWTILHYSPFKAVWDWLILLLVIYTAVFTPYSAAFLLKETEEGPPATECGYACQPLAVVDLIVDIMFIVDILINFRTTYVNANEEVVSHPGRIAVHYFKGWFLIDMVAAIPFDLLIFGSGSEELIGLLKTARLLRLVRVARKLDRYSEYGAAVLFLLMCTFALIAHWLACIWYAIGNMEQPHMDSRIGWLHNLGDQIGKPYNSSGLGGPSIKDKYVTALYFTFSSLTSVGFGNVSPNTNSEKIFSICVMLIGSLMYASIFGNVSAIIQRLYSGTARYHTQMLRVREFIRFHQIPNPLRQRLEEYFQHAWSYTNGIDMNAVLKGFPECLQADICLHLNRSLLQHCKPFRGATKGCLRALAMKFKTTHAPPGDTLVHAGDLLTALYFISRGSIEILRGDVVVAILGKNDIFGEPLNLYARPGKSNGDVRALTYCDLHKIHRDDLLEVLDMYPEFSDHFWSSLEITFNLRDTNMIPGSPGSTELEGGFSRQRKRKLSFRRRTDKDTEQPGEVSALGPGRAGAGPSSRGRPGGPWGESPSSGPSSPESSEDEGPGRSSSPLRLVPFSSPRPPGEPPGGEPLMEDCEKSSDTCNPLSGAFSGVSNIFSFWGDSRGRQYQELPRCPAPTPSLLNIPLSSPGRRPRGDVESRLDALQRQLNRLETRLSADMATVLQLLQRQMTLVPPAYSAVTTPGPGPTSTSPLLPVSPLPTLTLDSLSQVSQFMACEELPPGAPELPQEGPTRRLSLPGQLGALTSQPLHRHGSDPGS

NCCNS(=O)(=O)c1cccc2c(Cl)cccc12
AC50 [1]: 22.4 µM (inconclusive)

O=C(COc1cccnc1[N+](=O)[O-])Nc1ncc(Cl)cc1Cl
IC50 [2]: 6.27 µM (active)

COc1ccc(-n2c3c(cc(C(=O)NCc4ccco4)c2=O)C(=O)CC(C)(C)C3)cc1
EC50 [3]: 3.76 µM (active)

CCCC(C)NC(=O)Cc1ccccc1 (configuration not stated)
IC50 [4]: > 50 µM (inactive)

CN(C)CCCCSC(=N)N
AC50 [1]: 35.5 µM (inconclusive)

O=C(NNC1=C(C(=O)C(F)(F)F)CCC1)c1ccc(Br)cc1
EC50 [5]: > 75 µM (inactive)
EC50 [6]: 1.02 µM (active)
EC50 [7]: 0.152 µM (active)
EC50 [8]: > 180 µM (inactive)
EC50 [9]: 2.23 µM (active)
AC50 [10]: 3.16 µM (active)
AC50 [11]: 1.11 µM (active)
IC50 [12]: 11.2 µM (active)

O=C1c2ccccc2C(=O)N1OS(=O)(=O)c1ccccc1
IC50 [4]: 1.61 µM (active)

Cc1ccc(C)c2[nH]c(=O)c(CN(Cc3nnnn3C3CCCCC3)CC3CCCO3)cc12 (configuration not stated)
EC50 [3]: 1.68 µM (active)
IC50 [4]: > 50 µM (inactive)

CC(C)(C)Cc1nnc(NC(=O)Cc2cccs2)s1
IC50 [2]: 4.36 µM (active)

O=C(NNc1cc(Cl)ccc1Cl)c1c(F)cccc1Cl
IC50 [4]: > 50 µM (inactive)

Cc1nn(CCc2nnn[nH]2)c2nc(-c3ccccc3)cc(C(F)(F)F)c12
IC50 [2]: 7.45 µM (active)

CCOC(=O)C1=C(C)c2ccccc2OC1(C(=O)OCC)c1ccccc1 (configuration not stated)
IC50 [2]: 34.2 µM (active)

CC(C)(C)c1ccc(C(=O)Nc2cc(Cl)ccc2O)cc1
IC50 [13]: 25 µM (inactive)

COc1ccc(C(=O)Nc2cc(I)ccc2C(=O)O)cc1
IC50 [13]: 14.2 µM (active)

O=C(Cn1sc2ccccc2c1=O)Nc1ccccc1I
IC50 [13]: 4.75 µM (active)

O=C1c2cccc(Br)c2SCN1c1ccccc1
IC50 [13]: > 25 µM (inactive)

COCCn1c(SCc2ccc(F)cc2)nc2ccccc2c1=O
EC50 [3]: 2.37 µM (active)

O=C(Nc1cccc(Cl)c1)Nc1ncc(CCNc2ncnc3ccsc23)s1 [SNS-314]
Ki [14]: > 3.98 µM (inactive)

CCN(CC)CCNC(=O)c1cc(S(C)(=O)=O)ccc1OC [TIAPRIDE HYDROCHLORIDE]
AC50 [1]: 35.5 µM (inconclusive)
